Results as given in patent publication US20230131903A1, “PESTICIDALLY ACTIVE FUSED BICYCLIC HETEROAROMATIC COMPOUNDS” (SYNGENTA CROP PROTECTION AG, priority 2020, published 2023).

Legend:
Type in all cases: in vivo
[1] = test system: Euschistus heros (Neotropical Brown Stink Bug); assay: Example B2: Euschistus heros (neotropical brown stink bug), soybean leaves sprayed, N2 nymphs; conditions: 120 h, application rate of 200 ppm, 5 days after infestation, in comparison to untreated samples, read-out: control in at least one of the two categories (mortality or growth inhibition)
Method: Example B2: Euschistus heros (Neotropical Brown Stink Bug)
Soybean leaves on agar in 24-well microtiter plates were sprayed with aqueous test solutions prepared from 10′000 ppm DMSO stock solutions. After drying the leaves were infested with N2 nymphs. The samples were assessed for mortality and growth inhibition in comparison to untreated samples 5 days after infestation.
(§1) The following compounds gave an effect of at least 80% control in at least one of the two categories (mortality or growth inhibition) at an application rate of 200 ppm

[2] = test system: Chilo suppressalis (Striped Rice Stemborer); assay: Example B3: Chilo suppressalis (striped rice stemborer), artificial diet, L2 larvae; conditions: 144 h, application rate of 200 ppm, 6 days after infestation, in comparison to untreated samples, read-out: control in at least one of the three categories (mortality, anti-feedant effect, or growth inhibition)
Method: Example B3: Chilo suppressalis (Striped Rice Stemborer)
24-well microtiter plates with artificial diet were treated with aqueous test solutions prepared from 10′000 ppm DMSO stock solutions by pipetting. After drying, the plates were infested with L2 larvae (6-8 per well). The samples were assessed for mortality, anti-feeding effect, and growth inhibition in comparison to untreated samples 6 days after infestation. Control of Chilo suppressalis by a test sample is given when at least one of the categories mortality, anti-feedant effect, and growth inhibition is higher than the untreated sample.

[3] = test system: Plutella xylostella (Diamond Back Moth); assay: Example B4: Plutella xylostella (diamond back moth), artificial diet, eggs; conditions: 192 h, application rate of 200 ppm, 8 days after infestation, in comparison to untreated samples, read-out: control in at least one of the two categories (mortality or growth inhibition)
Method: Example B4: Plutella xylostella (Diamond Back Moth)
24-well microtiter plates with artificial diet were treated with aqueous test solutions prepared from 10′000 ppm DMSO stock solutions by pipetting. After drying, Plutella eggs were pipetted through a plastic stencil onto a gel blotting paper and the plate was closed with it. The samples were assessed for mortality and growth inhibition in comparison to untreated samples 8 days after infestation.
as §1

[4] = test system: Spodoptera littoralis (Egyptian Cotton Leaf Worm); assay: Example B5: Spodoptera littoralis (Egyptian cotton leaf worm), cotton leaf discs sprayed, L1 larvae; conditions: foliar, 72 h, application rate of 200 ppm, 3 days after infestation, in comparison to untreated samples, read-out: control in at least one of the three categories (mortality, anti-feedant effect, or growth inhibition)
Method: Example B5: Spodoptera littoralis (Egyptian Cotton Leaf Worm)
Cotton leaf discs were placed onto agar in 24-well microtiter plates and sprayed with aqueous test solutions prepared from 10′000 ppm DMSO stock solutions. After drying the leaf discs were infested with five L1 larvae. The samples were assessed for mortality, anti-feeding effect, and growth inhibition in comparison to untreated samples 3 days after infestation. Control of Spodoptera littoralis by a test sample is given when at least one of the categories mortality, anti-feedant effect, and growth inhibition is higher than the untreated sample.

[5] = test system: Diabrotica Balteata (Corn Root Worm); assay: Example B1: Diabrotica balteata (corn root worm), maize sprouts sprayed, L2 larvae; conditions: 96 h, application rate of 200 ppm, 4 days after infestation, in comparison to untreated samples, read-out: control in at least one of the two categories (mortality or growth inhibition)
Method: Example B1: Diabrotica Balteata (Corn Root Worm)
Maize sprouts placed onto an agar layer in 24-well microtiter plates were treated with aqueous test solutions prepared from 10′000 ppm DMSO stock solutions by spraying. After drying, the plates were infested with L2 larvae (6 to 10 per well). The samples were assessed for mortality and growth inhibition in comparison to untreated samples 4 days after infestation.
as §1

Structure (SMILES)	percent control (mortality or growth inhibition) at 200 ppm [1]	percent control (mortality, anti-feedant effect or growth inhibition) at 200 ppm [2]	percent control (mortality or growth inhibition) at 200 ppm [3]	percent control (mortality, anti-feedant effect or growth inhibition) at 200 ppm [4]	percent control (mortality or growth inhibition) at 200 ppm [5]
CC(c1ncnn1-c1ncccn1)N(C)c1nc(=O)n(C)c2c(Cl)cc(C(F)(F)F)cc12 (stereo not shown) [P10, 8-chloro-1-methyl-4-[methyl-[1-(2-pyrimidin-2-yl-1,2,4-triazol-3-yl)ethyl]amino]-6-(trifluoromethyl) quinazolin-2-one]	≥ 80%				
CC(Nc1nc(=O)[nH]c2c(Cl)cc(C(F)(F)F)cc12)c1ncnn1-c1ncccn1 (stereo not shown) [P4, 8-chloro-4-[1-(2-pyrimidin-2-yl-1,2,4-triazol-3-yl)ethylamino]-6-(trifluoromethyl)-1H-quinazolin-2-one]	≥ 80%	≥ 80%	≥ 80%	≥ 80%	
CC(c1ncnn1-c1ncccn1)N(C)c1nc(=O)n(C)c2c(C(F)(F)F)cc(Br)cc12 (stereo not shown) [P6, 6-bromo-1-methyl-4-[methyl-[1-(2-pyrimidin-2-yl-1,2,4-triazol-3-yl)ethyl]amino]-8-E (trifluoromethyl)quinazolin-2-one]	≥ 80%				≥ 80%
CC(c1ncnn1-c1ncccn1)N(C)c1nc(=O)n(CC(F)(F)F)c2ccc(C(F)(F)F)cc12 (stereo not shown) [P12, 4-[methyl-[1-(2-pyrimidin-2-yl-1,2,4-triazol-3-yl)ethyl]amino]-1-(2,2,2-trifluoroethyl)-6-(trifluoromethyl) quinazolin-2-one]	≥ 80%				
CC(Nc1nc(=O)n(C)c2c(Cl)cc(C(F)(F)F)cc12)c1ncnn1-c1ncccn1 (stereo not shown) [P7, 8-chloro-1-methyl-4-[1-(2-pyrimidin-2-yl-1,2,4-triazol-3-yl)ethylamino]-6-(trifluoromethyl) quinazolin-2-one]	≥ 80%	≥ 80%	≥ 80%		
CC(Nc1nc(=O)n(C)c2c(C(F)(F)F)cc(Br)cc12)c1ncnn1-c1ncccn1 (stereo not shown) [P5, 6-bromo-1-methyl-4-[1-(2-pyrimidin-2-yl-1,2,4-triazol-3-yl)ethylamino]-8-(trifluoromethyl)quinazolin-2-one]	≥ 80%	≥ 80%	≥ 80%	≥ 80%	≥ 80%
CC(c1ncnn1-c1ncccn1)N(CC1CC1)c1nc(=O)[nH]c2c(Br)cc(C(F)(F)F)cc12 (stereo not shown) [P3, 8-bromo-4-[cyclopropylmethyl-[1-(2-pyrimidin-2-yl-1,2,4-triazol-3-yl)ethyl]amino]-6-(trifluoromethyl)-1H-quinazolin-2-one]	≥ 80%		≥ 80%		≥ 80%
CC(Nc1cc(=O)[nH]c2c(Cl)cc(C(F)(F)F)cc12)c1nccnc1-c1ncccn1 (stereo not shown) [P8, 8-chloro-4-[1-(3-pyrimidin-2-ylpyrazin-2-yl)ethylamino]-6-(trifluoromethyl)-1H-quinolin-2-one]			≥ 80%		≥ 80%
CC(c1ncnn1-c1ncccn1)N(CC1CC1)c1nc(=O)[nH]c2c(Cl)cc(C(F)(F)F)cc12 (stereo not shown) [P1, 8-chloro-4-[cyclopropylmethyl-[1-(2-pyrimidin-2-yl-1,2,4-triazol-3-yl)ethyl]amino]-6-(trifluoromethyl)-1H-quinazolin-2-one]	≥ 80%		≥ 80%		≥ 80%
CC(Nc1nc(=O)[nH]c2c(Br)cc(C(F)(F)F)cc12)c1ncnn1-c1ncccn1 (stereo not shown) [P2]	≥ 80%	≥ 80%	≥ 80%		≥ 80%
